# Data published in patent US6503492B2, “Antiperspirant or deodorant compositions” (priority 2001, dated 2003).
# Several values for one entry are separate records, joined by “and”; a condition that tells them apart may be missing. Identical values can stand only once.
# Key:
# [1] = test system: histamine-induced itch; experiment: Histamine-induced itch, test material topically applied in Aqueous Cream BP (histamine iontophoresis, VAS); conditions: for Itch score (area under the curve): VAS area 0 to 5 min; for Itch score % of control: versus vehicle alone
# [2] = test system: histamine-induced itch; experiment: Histamine-induced itch, test material topically applied in ethanol:Vaseline Intensive Care Lotion; assay type: in vivo, human; conditions: for Anti-pruritic action (in words): comparison N-acyl ethanolamides in ethanol:VICL lotion; for Itch score % of control: comparison N-acyl ethanolamides, 50 mM in ethanol, in ethanol:VICL lotion, versus vehicle alone of the same run
# Procedure: This mixture was applied (250 μl/5 cm^2-5 times at 1 h intervals) and histamine iontophoresis was performed on the treated site in the method described in Example 2. The vehicle control was ethanol:VICL (volume ratio 1:1).
# Related molecules stearylethanolamine (SEA; 50 mM in ethanol) and linoleoylethanolamine (LAMEA; 50 mM in ethanol) were tested as potential activating agents for a CBR, employing the test method described in Example 3 and applied in the ethanol:VICL lotion.
# [3] = test system: histamine-induced itch; experiment: Histamine-induced itch, test material applied under water-impermeable patch for 24 hours; conditions: PEA 100 mM under patch
# [4] = test system: skin organotypic cultures (Epiderm™); experiment: Skin organotypic culture: antiperspirant (APF1)-induced IL-6 release, ELISA; conditions: for IL-6 pg/ml ± SD: APF1 topically, 24h
# [5] = test system: antiperspirant-induced irritation; experiment: Antiperspirant-induced irritation in vivo, 47 h Finn chamber patch test, erythema grading; set-up: species or system human
# Procedure: In this Example, patch tests were performed on a mixed panel of 49 volunteers with age ranges between 18 and 55, using a double-blind protocol with randomized patch sites. Samples (20 mg) were applied to a filter paper that was placed within a Finn chamber (0.8 cm internal diameter). The chambers were then attached to the volar forearm using Scanpore™ tape (Norgesplater, Nor.) and left for 47 h. At the end of the 47 h period, the patches were removed and the site was left open for 5 h when the erythema associated with the patch was visually assessed and scored using an in-house standard assessment Patch Grading Scale as set out below.
# [6] = AEA 5% (w/v) in Aqueous Cream BP
smiles,measurement,setting,value
"CCCCC/C=C\C/C=C\C/C=C\C/C=C\CCCC(=O)NCCO [AEA, (all Z)-N-(2-Hydroxyethyl)-5,8,11,14-eicosatetraenamide]",Itch score (area under the curve),[1]; [6],1322
same,Itch score % of control,[1]; [6],76 % of control
same,Effect on histamine-induced itch (in words),[1]; anandamide topically applied,inhibitor of histamine-induced itch
"CCCCCCC(C)(C)c1cc(O)c2c(c1)OC(C)(C)[C@@H]1CC=C(CO)C[C@@H]21 [HU-210, (6aR)-trans-3-(1,1-Dimethylheptyl)-6a,7,10,10a-tetrahydro-1-hydroxy-6,6-dimethyl-6H-dibenzo[b,d]pyran-9-methanol]",Itch score % of control,[1]; HU-210 0.05% (w/v) in Aqueous Cream BP,7.3 % of control
same,Itch score (area under the curve),"[1]; HU-210 0.05% (w/v) in Aqueous Cream BP, volar forearm, after 4 hours",101
same,Itch score % of control,[1]; HU-210 0.5% (w/v) in Aqueous Cream BP,6.2 % of control
same,Itch score (area under the curve),"[1]; HU-210 0.5% (w/v) in Aqueous Cream BP, volar forearm, after 4 hours",119
same,Effect on histamine-induced itch (in words),[1]; HU-210 topically applied in Aqueous Cream BP,capable of reducing histamine-induced itch
"CCCCC/C=C\C/C=C\CCCCCCCC(=O)NCCO [LAMEA, linoleoylethanolamine]",Anti-pruritic action (in words),[2],unable to demonstrate any anti-pruritic action or even appeared to exacerbate the itch response
same,Itch score % of control,[2],169 % of control and 108 % of control and 100 % of control
"CCCCCCCCCCCCCCCC(=O)NCCO [PEA, Palmitoylethanolamide]",Effect on histamine-induced itch (in words),[3],can inhibit histamine-induced itch
same,IL-6 pg/ml ± SD,[4]; PEA 0.1 μM in the medium,38.3 ± 7.6 pg/mL
same,IL-6 pg/ml ± SD,[4]; PEA 1.0 μM in the medium,36.5 ± 11.6 pg/mL
same,IL-6 pg/ml ± SD,[4]; PEA 10.0 μM in the medium,59.5 ± 13.8 pg/mL
same,IL-6 pg/ml ± SD,[4]; PEA 100.0 μM in the medium,43.0 ± 7.9 pg/mL
same,IL-6 pg/ml ± SD,[4]; PEA 1000.0 μM in the medium,63.0 ± 24.8 pg/mL
same,AP-induced IL-6 release (in words),"[4]; PEA at all concentrations used, Dunnet's test p<0.05",significantly decrease AP-induced IL-6 release
same,Irritation induced by APF1 (in words),"[5]; 0.25% palmitoylethanolamide in APF1, Wilcoxon signed rank test, significance level 5%",reduced significantly
same,Mean Irritation Score,"[5]; APF1 with 0.25% PEA, 20 mg in Finn chamber 47 h, scored 5 h after removal, Patch Grading Scale 0-4, 49 volunteers",0.54
same,Effect on histamine-induced itch (in words),[2]; PEA topically applied in the presence of a lotion,can inhibit histamine-induced itch
"CCCCCCCCCCCCCCCCCC(=O)NCCO [SEA, stearylethanolamine]",Anti-pruritic action (in words),[2],unable to demonstrate any anti-pruritic action or even appeared to exacerbate the itch response
same,Itch score % of control,[2],231 % of control and 260 % of control and 190 % of control
